From patent US9556183B2, “Substituted pyrazolylpyrazole derivative and use of same as herbicide” (KYOYU AGRI CO., LTD., priority 2013, dated 2017)

Legend:
[1] = system: Echinochloa crus-galli; test: Paddy herbicidal activity test; format: in vivo; settings: irrigated paddy pot, treated at 3.5 leaf stage of Echinochloa crus-galli, 30 days
Procedure: (§1) Rice paddy soil was filled into a 1/10000 are pot followed by the addition of suitable amounts of water and chemical fertilizer, kneading, seeding with Echinochloa crus-galli, Monochoria vaginalis and Scirpus juncoides and maintaining in an irrigated state at a water depth of 3 cm. Wettable powder of Target Compound (I) shown in Table 1 prepared in compliance with the preparation examples were diluted with a suitable amount of water, rice plants in the 2.0 leaf stage were transplanted during 3.5 leaf stage of Echinochloa crus-galli, and treated by dropping in chemical in the prescribed amount per are using a pipette. After treating for 30 days in a glass greenhouse at an average atmospheric temperature of 30° C., the herbicidal efficacy thereof was investigated. Evaluation of herbicidal efficacy was carried out by comparing growth inhibition rate (%) with an untreated group, while evaluation of phytotoxicity was carried out by comparing growth inhibition rate (%) with the state of a complete eradication group, and were evaluated at 11 levels indicated below. [table]

[2] = system: Monochoria vaginalis; test: Paddy herbicidal activity test; format: in vivo; settings: irrigated paddy pot, 30 days
Procedure: as §1

[3] = system: Scirpus juncoides; test: Paddy herbicidal activity test; format: in vivo; settings: irrigated paddy pot, 30 days
Procedure: as §1

[4] = system: Rice plants; test: Paddy herbicidal activity test, phytotoxicity to transplanted rice; format: in vivo; settings: rice transplanted at 2.0 leaf stage, 30 days
Procedure: as §1

[5] = system: Amaranthus retroflexus; test: Farming soil treatment test; format: in vivo; settings: soil surface spray prior to weed growth, 30 days
Procedure: (§2) Evaluation of herbicidal efficacy was carried out by comparing growth inhibition rate (%) with an untreated group, while evaluation of phytotoxicity was carried out by comparing growth inhibition rate (%) with the state of a complete eradication group, and were evaluated at 11 levels indicated below. [table] Field soil was filled into a 1/6000 are pot followed by seeding with Digitaria ciliaris, Chenopodium album and Amaranthus retroflexus and covering with soil. Wettable powder of compounds of formula (I) shown in Table 1 prepared in compliance with the preparation examples were diluted with water to the prescribed amount of chemical and uniformly sprayed onto each soil surface layer using 10 liters of sprayed water per are prior to weed growth following seeding. After treating for 30 days in a glass greenhouse at an average atmospheric temperature of 30° C., the herbicidal efficacy thereof was investigated. Evaluation of herbicidal efficacy was carried out in the same manner as the above-mentioned Test Example 1.

[6] = system: Chenopodium album; test: Farming soil treatment test; format: in vivo; settings: soil surface spray prior to weed growth, 30 days
Procedure: as §2

[7] = system: Digitaria ciliaris; test: Farming soil treatment test; format: in vivo; settings: soil surface spray prior to weed growth, 30 days
Procedure: as §2

[8] = system: Amaranthus retroflexus; test: Weed foliar treatment test; format: in vivo; settings: foliar spray, 3 weeks
Procedure: (§3) Evaluation of herbicidal efficacy was carried out by comparing growth inhibition rate (%) with an untreated group, while evaluation of phytotoxicity was carried out by comparing growth inhibition rate (%) with the state of a complete eradication group, and were evaluated at 11 levels indicated below. [table] Soil was filled into a 1/6000 are pot followed by seeding with Digitaria ciliaris, Chenopodium album and Amaranthus retroflexus, covering with soil, and cultivating in a glass greenhouse at an average atmospheric temperature of 25° C. Wettable powder of Target Compound (I) shown in Table 1 prepared in compliance with the preparation examples were diluted with water to the prescribed amount of chemical and uniformly sprayed onto the weeds using 15 liters of sprayed water per are when Digitaria ciliaris had grown to the 1.0 to 2.0 leaf stage. After treating for 3 weeks in a glass greenhouse at an average atmospheric temperature of 25° C., the herbicidal efficacy thereof was investigated, Evaluation of herbicidal efficacy was carried out in the same manner as the above-mentioned Test Example 1.

[9] = system: Chenopodium album; test: Weed foliar treatment test; format: in vivo; settings: foliar spray, 3 weeks
Procedure: as §3

[10] = system: Digitaria ciliaris; test: Weed foliar treatment test; format: in vivo; settings: foliar spray at 1.0 to 2.0 leaf stage of Digitaria ciliaris, 3 weeks
Procedure: as §3

Compound | herbicidal efficacy (growth inhibition rate level) Echinochloa crus-galli ([1]; 1g a.i./10a) | herbicidal efficacy (growth inhibition rate level) Echinochloa crus-galli ([1]; 5g a.i./10a) | herbicidal efficacy (growth inhibition rate level) Monochoria vaginalis ([2]; 1g a.i./10a) | herbicidal efficacy (growth inhibition rate level) Monochoria vaginalis ([2]; 5g a.i./10a) | herbicidal efficacy (growth inhibition rate level) Scirpus juncoides ([3]; 1g a.i./10a) | herbicidal efficacy (growth inhibition rate level) Scirpus juncoides ([3]; 5g a.i./10a) | phytotoxicity (growth inhibition rate level) Rice plants ([4]; 1g a.i./10a) | phytotoxicity (growth inhibition rate level) Rice plants ([4]; 5g a.i./10a) | herbicidal efficacy (growth inhibition rate level) Amaranthus retroflexus ([5]; 5g a.i./10a) | herbicidal efficacy (growth inhibition rate level) Amaranthus retroflexus ([5]; 10g a.i./10a) | herbicidal efficacy (growth inhibition rate level) Chenopodium album ([6]; 5g a.i./10a) | herbicidal efficacy (growth inhibition rate level) Chenopodium album ([6]; 10g a.i./10a) | herbicidal efficacy (growth inhibition rate level) Digitaria ciliaris ([7]; 5g a.i./10a) | herbicidal efficacy (growth inhibition rate level) Digitaria ciliaris ([7]; 10g a.i./10a) | herbicidal efficacy (growth inhibition rate level) Amaranthus retroflexus ([8]; 5g a.i./10a) | herbicidal efficacy (growth inhibition rate level) Amaranthus retroflexus ([8]; 10g a.i./10a) | herbicidal efficacy (growth inhibition rate level) Chenopodium album ([9]; 5g a.i./10a) | herbicidal efficacy (growth inhibition rate level) Chenopodium album ([9]; 10g a.i./10a) | herbicidal efficacy (growth inhibition rate level) Digitaria ciliaris ([10]; 5g a.i./10a) | herbicidal efficacy (growth inhibition rate level) Digitaria ciliaris ([10]; 10g a.i./10a) | further results
N#Cc1cnn(-c2nn3c(c2Cl)CCCC3)c1NCC1CC1 [Compound 1, 1-(3-chloro-4,5,6,7-tetrahydropyrazolo[1,5-a]pyridin-2-yl)-5-(cyclopropylmethylamino)pyrazole-4-carbonitrile] | 9 (9: 90% to less than 100%) | 10 (10: 100%) | 8 (8: 80% to less than 90%) | 8 (8: 80% to less than 90%) | 8 (8: 80% to less than 90%) | 9 (9: 90% to less than 100%) | 0 (0 (exponent): 0% to less than 10% (growth inhibition rate)) | 1 (1: 10% to less than 20%) | 10 (10: 100%) | 10 (10: 100%) | 10 (10: 100%) | 10 (10: 100%) | 10 (10: 100%) | 10 (10: 100%) | 10 (10: 100%) | 10 (10: 100%) | 10 (10: 100%) | 10 (10: 100%) | 10 (10: 100%) | 10 (10: 100%) | melting point: 165 to 166 °C
N#Cc1cnn(-c2nn3c(c2Cl)CCCC3)c1N(CC1CC1)C(=O)C(F)(F)F [Compound 2, N-(1-(3-chloro-4,5,6,7-tetrahydropyrazolo[1,5-a]pyridin-2-yl)-4-cyanopyrazol-5-yl)-N-(cyclopropylmethyl)-2,2,2-trifluoroacetoamide] | 9 (9: 90% to less than 100%) | 9 (9: 90% to less than 100%) | 8 (8: 80% to less than 90%) | 9 (9: 90% to less than 100%) | 8 (8: 80% to less than 90%) | 8 (8: 80% to less than 90%) | 0 (0 (exponent): 0% to less than 10% (growth inhibition rate)) | 1 (1: 10% to less than 20%) | 10 (10: 100%) | 10 (10: 100%) | 10 (10: 100%) | 10 (10: 100%) | 10 (10: 100%) | 10 (10: 100%) | 10 (10: 100%) | 10 (10: 100%) | 10 (10: 100%) | 10 (10: 100%) | 10 (10: 100%) | 10 (10: 100%) | melting point: 87.3 to 101 °C
N#Cc1cnn(-c2nn3c(c2Cl)CCCC3)c1NC1CC1 [Control agent 4.84, reference compound] | 3 (3: 30% to less than 40%) | 5 (5: 50% to less than 60%) | 2 (2: 20% to less than 30%) | 3 (3: 30% to less than 40%) | 3 (3: 30% to less than 40%) | 4 (4: 40% to less than 50%) | 0 (0 (exponent): 0% to less than 10% (growth inhibition rate)) | 2 (2: 20% to less than 30%) | 6 (6: 60% to less than 70%) | 6 (6: 60% to less than 70%) | 6 (6: 60% to less than 70%) | 6 (6: 60% to less than 70%) | 5 (5: 50% to less than 60%) | 5 (5: 50% to less than 60%) | 6 (6: 60% to less than 70%) | 7 (7: 70% to less than 80%) | 6 (6: 60% to less than 70%) | 7 (7: 70% to less than 80%) | 5 (5: 50% to less than 60%) | 6 (6: 60% to less than 70%) | 
N#Cc1cnn(-c2nn3c(c2Cl)CCCC3)c1NCC1CO1 (stereo not shown) [Control agent 4.129, reference compound] | 1 (1: 10% to less than 20%) | 3 (3: 30% to less than 40%) | 0 (0 (exponent): 0% to less than 10% (growth inhibition rate)) | 0 (0 (exponent): 0% to less than 10% (growth inhibition rate)) | 3 (3: 30% to less than 40%) | 4 (4: 40% to less than 50%) | 1 (1: 10% to less than 20%) | 2 (2: 20% to less than 30%) | 6 (6: 60% to less than 70%) | 7 (7: 70% to less than 80%) | 6 (6: 60% to less than 70%) | 6 (6: 60% to less than 70%) | 4 (4: 40% to less than 50%) | 5 (5: 50% to less than 60%) | 7 (7: 70% to less than 80%) | 7 (7: 70% to less than 80%) | 6 (6: 60% to less than 70%) | 7 (7: 70% to less than 80%) | 4 (4: 40% to less than 50%) | 5 (5: 50% to less than 60%) | 
